By AC50 is commonly meant the midpoint of the concentration-response curve, whichever way the signal moves. By IC50 is commonly meant the concentration that gives 50% inhibition. One may read the EC50 as the concentration giving half of the maximal effect. Broadly, the CC50 is the concentration at which the toxic effect on the cells reaches its halfway point.

Consider 4 compounds from ChEMBL document CHEMBL1201862, “PubChem BioAssay data set” (2004).

The source made the active and inactive calls. Bounds are passed on as bounds.

One data set addresses Cytochrome P450 3A4 (Homo sapiens, UniProt P08684).
For a further data set, the target named is SUMO E1/E2 (Homo sapiens, UniProt P63279+Q9UBE0+Q9UBT2). Briefly: SAR analysis of SUMOylation using HTRF in an in-Vitro dose response assay. [Related pubchem assays (depositor defined):AID2006, AID2011, AID2018, AID2069, AID2658]. Type of data set: functional. On the technique in general: Time-resolved FRET reads energy transfer from a long-lived donor to a nearby acceptor.
Chain of SUMO E1/E2 (Q9UBE0 whole entry): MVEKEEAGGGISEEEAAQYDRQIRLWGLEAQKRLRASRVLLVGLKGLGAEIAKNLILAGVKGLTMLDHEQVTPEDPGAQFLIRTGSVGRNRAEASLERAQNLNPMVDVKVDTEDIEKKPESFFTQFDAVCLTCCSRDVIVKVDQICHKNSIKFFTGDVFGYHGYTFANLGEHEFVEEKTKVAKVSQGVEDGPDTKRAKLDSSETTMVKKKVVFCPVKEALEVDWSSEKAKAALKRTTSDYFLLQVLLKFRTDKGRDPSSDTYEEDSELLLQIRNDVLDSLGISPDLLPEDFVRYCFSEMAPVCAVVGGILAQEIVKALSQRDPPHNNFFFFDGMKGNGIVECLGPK
Chain of SUMO E1/E2 (Q9UBT2 whole entry): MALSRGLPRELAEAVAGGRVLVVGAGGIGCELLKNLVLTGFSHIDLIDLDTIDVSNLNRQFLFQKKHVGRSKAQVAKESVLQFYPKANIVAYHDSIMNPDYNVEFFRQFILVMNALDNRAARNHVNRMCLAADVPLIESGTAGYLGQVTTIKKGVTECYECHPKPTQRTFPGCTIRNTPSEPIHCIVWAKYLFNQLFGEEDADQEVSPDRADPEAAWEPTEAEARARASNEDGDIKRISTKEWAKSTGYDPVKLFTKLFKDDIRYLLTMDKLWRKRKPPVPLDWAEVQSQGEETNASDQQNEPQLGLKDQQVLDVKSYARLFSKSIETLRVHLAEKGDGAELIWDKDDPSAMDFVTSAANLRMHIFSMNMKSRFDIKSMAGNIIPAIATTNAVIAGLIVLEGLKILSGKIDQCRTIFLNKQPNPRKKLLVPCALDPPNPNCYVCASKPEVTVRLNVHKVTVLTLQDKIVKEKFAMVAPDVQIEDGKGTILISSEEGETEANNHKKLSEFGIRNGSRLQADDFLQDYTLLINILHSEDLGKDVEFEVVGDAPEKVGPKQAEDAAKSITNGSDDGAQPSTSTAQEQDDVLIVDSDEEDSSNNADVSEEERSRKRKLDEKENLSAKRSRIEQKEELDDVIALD
Chain of SUMO E1/E2 (P63279 whole entry): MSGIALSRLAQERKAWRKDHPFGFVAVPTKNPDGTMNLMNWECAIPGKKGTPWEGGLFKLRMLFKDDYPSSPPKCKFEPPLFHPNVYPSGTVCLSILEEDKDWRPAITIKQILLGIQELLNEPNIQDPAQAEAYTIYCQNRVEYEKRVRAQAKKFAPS

Another data set has as its system INS1. As to the kind of experiment: beta cell apoptosis inhibitors, cytokine rescue, dose response, luminescence, retest (AID 449756).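 Note: cell death triggered by IL-1 beta plus TNF-alpha plus IFN-gamma mixture; protective hits raise ATP signal compared with cytokine alone wells.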 Type of data set: functional, cell-based. To be noted: Rattus norvegicus.
For data set [1], the target named is T1, Ubiquitin-conjugating enzyme E2 N (Homo sapiens, UniProt P61088).
T1 sequence (P61088 whole entry): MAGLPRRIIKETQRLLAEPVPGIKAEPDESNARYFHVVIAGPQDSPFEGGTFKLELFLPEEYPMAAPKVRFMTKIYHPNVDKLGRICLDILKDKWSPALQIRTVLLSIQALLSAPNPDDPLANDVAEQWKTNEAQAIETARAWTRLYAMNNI
It is filed as functional.

The nature of data set [2]: inhibitors of intracellular T. cruzi replication, confirmation, NIH3T3 host cells, beta-gal luminescence (AID 2044).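 Note: intracellular parasites grown in NIH/3T3 mouse fibroblasts as host cells; luminescent beta-galactosidase reporter signal from transgenic T. cruzi replicating inside host cells; inhibitors lower the luminescence signal.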 Type of data set: functional, cell-based.
Data set [3] in a line: insulin promoter down-regulators in MIN6 cells, imaging, high-content screening, mouse beta cells (AID 1628). It is filed as functional.
A short description of data set [4]: cytotoxicity in MIN6 insulinoma cells, dose response, cytotoxicity control, cell-based, mouse insulinoma (AID 2122).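 Note: confirmatory high-throughput counterscreen run to flag cytotoxic compounds; mouse MIN-6 beta cells carrying an insulin promoter eGFP reporter.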 Type of data set: functional.
A further data set deals with T2, Bcl-2-related protein A1 (Mus musculus, UniProt Q07440).
T2 sequence (Q07440 whole entry): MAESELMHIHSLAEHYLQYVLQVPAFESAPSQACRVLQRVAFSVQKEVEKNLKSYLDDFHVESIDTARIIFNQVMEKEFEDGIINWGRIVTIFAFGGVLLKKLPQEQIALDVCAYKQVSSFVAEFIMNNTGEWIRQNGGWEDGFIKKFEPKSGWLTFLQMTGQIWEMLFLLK
Type of data set: functional.

For data set [5], the target named is T1, Ubiquitin-conjugating enzyme E2 N. Type of data set: functional. This is another data set of the same source.
A short description of data set [6]: THP-1 cell cytotoxicity, dose response, cytotoxicity control for Vif-APOBEC3G degradation inhibitor project, THP-1 cells (AID 1117359). It is filed as functional. To be noted: Human immunodeficiency virus 1, THP-1.
The nature of data set [7]: cytotoxicity toward NIH3T3 fibroblasts, dose response, counter-screen, cell-based, ATP luminescence, mouse fibroblasts (AID 2010).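 Note: cells exposed to compound for about 90 hours before reading.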 It is filed as functional. A general note: The purpose of a counterscreen is to sort out artefacts and off-target activity.

Chain of Cytochrome P450 3A4 (P08684 whole entry): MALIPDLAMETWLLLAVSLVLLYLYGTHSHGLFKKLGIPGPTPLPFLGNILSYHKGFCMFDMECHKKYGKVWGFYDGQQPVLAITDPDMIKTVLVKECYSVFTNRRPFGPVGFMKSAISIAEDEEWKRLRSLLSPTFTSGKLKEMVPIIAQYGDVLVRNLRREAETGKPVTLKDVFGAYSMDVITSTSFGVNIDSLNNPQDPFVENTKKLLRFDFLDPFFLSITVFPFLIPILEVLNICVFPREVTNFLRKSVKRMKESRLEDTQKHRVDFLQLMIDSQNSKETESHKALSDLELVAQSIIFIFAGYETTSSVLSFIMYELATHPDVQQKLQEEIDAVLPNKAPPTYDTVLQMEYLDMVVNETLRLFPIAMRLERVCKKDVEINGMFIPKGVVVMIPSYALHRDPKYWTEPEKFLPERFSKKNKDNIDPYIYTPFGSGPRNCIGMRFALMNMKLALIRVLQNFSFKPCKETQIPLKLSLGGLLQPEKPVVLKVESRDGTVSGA

`OCCN1CCOCCOCCN(CCO)CCN(CCO)CC1`: the AC50 result at Cytochrome P450 3A4 is “inconclusive”.

`Cc1ccsc1/C=N/c1ccc(C(N)=O)cc1`: the IC50 on SUMO E1/E2 is > 100 µM (inactive).

For the compound `COc1ccccc1CNC(=O)COC(=O)c1cc(-c2cccs2)nc2ccccc12`, on SUMO E1/E2, the IC50 is 30.1 µM (active).

As for `COc1cc(/C=N/N=C(N)N)ccc1OCc1ccc(Cl)cc1`, the AC50 in the data set on INS1 was 2.95 µM (active). The IC50 in data set [1] was 13.2 µM (active); in data set [3], 1.03 µM (active); in data set [4], 0.916 µM (active); on Bcl-2-related protein A1, > 20 µM (inactive); in data set [5] it was 12.9 µM (active). In addition, the EC50 in [2] is 0.397 µM (active); in data set [7], > 30 µM (not active). For the same compound, the CC50 in data set [6] was 5.63 µM (active).
